This note sets out measurements from patent publication US10111437B2, “Substituted guanidines as fungicides” (Nippon Soda Co., Ltd., priority 2015, dated 2018).

SMILES strings stand for the structures.

For assay [1], the system named is Apple scab fungus (Venturia inaequalis). In words: Apple scab control test (foliar spray on apple seedlings). Type of assay: in vivo. Particulars: 125 ppm active ingredient, sprayed on apple seedlings (variety Orin) before inoculation, vs untreated. The procedure: The dilution was sprayed to apple seedlings (variety “Orin”, 3 to 4 leaf stage) grown in clay pots. […] The control value was calculated by the following equation. [formula]

The test system of assay [2] is cucumber gray mold fungus (Botrytis cinerea). The assay can be described thus: Cucumber gray mold control test (foliar spray on cucumber seedlings). The settings on record: in Cucumis sativus, 96 h, read-out: control value.
Assay [3] has as its system Tomato late blight fungus (Phytophthora infestans). In words: whole plant or invertebrate. Particulars: foliar, 96 h, read-out: control value. Type of assay: in vivo.

Take `CNCCNC(=N)NCCCCCCCCNC(=N)NCCCCOc1ccc(C(=N)N)cc1` [compound 147]: the pest or weed control at 125 ppm in assay [1], in assay [2] and in assay [3] was at least 75% in each case.
Turning to `N=C(N)NCCCCCCCCNC(=N)NCCCc1ccc(C2=NCCCN2)cc1` [compound 271], the pest or weed control at 125 ppm in assay [1] is at least 75%.
In the case of `N=C(N)c1ccc(OCCCN2CCN(CCCOc3ccc(C(=N)N)cc3)C2=N)cc1` [compound 2, 4-[3-[3-[3-(4-carbamimidoylphenoxy)propyl]-2-imino-imidazolidin-1-yl]propoxy]benzamidine], the pest or weed control at 125 ppm in assay [1], in assay [2] and in assay [3] was at least 75% throughout.
Consider `N=C(N)c1ccc(OCCCCN2CCN(CCCCOc3ccc(C(=N)N)cc3)C2=N[N+](=O)[O-])cc1` [compound 38, 4-[4-[3-[4-(4-carbamimidoylphenoxy)butyl]-2-nitroimino-imidazolidin-1-yl]butoxy]benzamidine], for which the pest or weed control at 125 ppm in assay [1] and in assay [2] was at least 75% each time.
With `N=C(N)c1csc(CCCCCn2ccn(CCCCCc3nc(C(=N)N)cs3)c2=N)n1` [compound 95], the pest or weed control at 125 ppm in assay [1] and in assay [2] was at least 75% each time.
As for `N=C(N)c1ccc(OCCCCCn2ccn(CCOc3ccc(C(=N)N)cc3)c2=N)cc1` [compound 93], the pest or weed control at 125 ppm in assay [1], in assay [2] and in assay [3] was at least 75% in each case.
As to `N=C(N)NCCCCCCCCNC(=N)NCCOc1ccc(C(=N)N)cc1` [compound 232], the pest or weed control at 125 ppm in assay [1] and in assay [3] was at least 75% in each case.
On to `N=C(NCCCc1ccc(C(=N)N)cc1)NCCCc1ccc(C(=N)N)cc1` [compound 65, 4-[3-[[N-[3-(4-carbamimidoylphenyl)propyl]carbamimidoyl]amino]propyl]benzamidine], for which the pest or weed control at 125 ppm in assay [1] and in assay [2] was at least 75% in each case.
As to `N=C(NCCCCOc1ccc(C(=N)N)cc1Cl)NCCCCOc1ccc(C(=N)N)cc1Cl` [compound 86], the pest or weed control at 125 ppm in assay [1], in assay [2] and in assay [3] was at least 75% each time.
Turning to `N=C(N)NCCCCCCCNC(=N)NCCCOc1ccc(C(=N)N)nn1` [compound 44, 6-(3-(3-(7-guanidinoheptyl)guanidino)propoxy) pyridazine-3-carboxamidine], the pest or weed control at 125 ppm in assay [1], in assay [2] and in assay [3] was at least 75% throughout.
Take `N=C(N)NCCCCCCCNC(=N)NCCCCOc1ccc(C2=NCCCN2)cc1` [compound 202]: the pest or weed control at 125 ppm in assay [1], in assay [2] and in assay [3] was at least 75% throughout.
For the molecule `N=C(N)NCCCCCCN1CCN(CCCCCCNC(=N)N)C1=N` [compound 4, 1-[6-[3-(6-guanidinohexyl)-2-imino-imidazolidin-1-yl]hexyl]guanidine], the pest or weed control at 125 ppm in assay [1] and in assay [2] was at least 75% each time.
`CC(C)(C)OC(=O)NC(=N)c1ccc(OCCn2ccn(CCOc3ccc(C(=N)NC(=O)OC(C)(C)C)cc3)c2=NC(=O)C(F)(F)F)cc1` [compound 73] registered a pest or weed control at 125 ppm in assay [1] of at least 75%.
In the case of `C/N=C(/NCCCOc1ccc(C(=N)N)cc1)N(C)CCCOc1ccc(C(=N)N)cc1` [compound 138], the pest or weed control at 125 ppm in assay [1], in assay [2] and in assay [3] was at least 75% throughout.
Regarding `CNC(=N)c1ccc(OCCCCn2ccn(CCCCOc3ccc(C(=N)NC)cc3)c2=N)cc1` [compound 118], the pest or weed control at 125 ppm in assay [1], in assay [2] and in assay [3] was at least 75% each time.
For the molecule `N=C(NCCCCCCCOc1ccc(C(=N)N)cc1)NCCCCCCCOc1ccc(C(=N)N)cc1` [compound 14, 4-[7-[[N-[7-(4-carbamimidoylphenoxy)heptyl]carbamimidoyl]amino]heptoxy]benzamidine], the pest or weed control at 125 ppm in assay [2] was at least 75%.
With `N=C(NCCCCOc1ccc(C(=N)N)cc1)NCCCc1cc2cc(C(=N)N)ccc2o1` [compound 196], the pest or weed control at 125 ppm in assay [1], in assay [2] and in assay [3] was at least 75% throughout.
As to `N=c1[nH]ccn1CCCCCCCCn1ccn(CCCOc2ccc(C3=NCCCN3)cc2)c1=N` [compound 283], the pest or weed control at 125 ppm in assay [1] and in assay [2] was at least 75% throughout.
As to `N=C(N)NCCCCCCCCNC(=N)NCCCOCc1ccc(C2=NCCCN2)cn1` [compound 250], the pest or weed control at 125 ppm in assay [1], in assay [2] and in assay [3] was at least 75% in each case.
As to `N=C(NCCCOc1ccc(C(=N)N)c(F)c1)NCCCOc1ccc(C(=N)N)c(F)c1` [compound 82], the pest or weed control at 125 ppm in assay [1], in assay [2] and in assay [3] was at least 75% each time.
On to `N=C(N)NCCCCCCCNC(=N)NCCCCOc1ccc(C(=N)N)cc1` [compound 30, 4-[4-[[N-(7-guanidinoheptyl)carbamimidoyl]amino]butoxy]benzamidine], for which the pest or weed control at 125 ppm in assay [1], in assay [2] and in assay [3] was at least 75% in each case.
For `N=C(N)NCCCCCCCCCn1ccn(CCCCOc2ccc(C3=NCCCN3)cc2)c1=N` [compound 212], the pest or weed control at 125 ppm in assay [1], in assay [2] and in assay [3] was at least 75% in each case.
In the case of `Cc1cc(C(=N)N)ccc1OCCCCNC(=N)NCCCCOc1ccc(C(=N)N)cc1C` [compound 84], the pest or weed control at 125 ppm in assay [1], in assay [2] and in assay [3] was at least 75% in each case.
With `N=C(N)NCCCCCCCNC(=N)NCCCOc1ccc(C2=NCCCN2)cc1` [compound 190], the pest or weed control at 125 ppm in assay [1], in assay [2] and in assay [3] was at least 75% in each case.
On to `N=C(N)NCCCCCNC(=N)NCCCOc1ccc(C(=N)N)cc1` [compound 132], for which the pest or weed control at 125 ppm in assay [1], in assay [2] and in assay [3] was at least 75% in each case.
Regarding `N=C(N)NCCCCCCCNC(=N)NCCOc1ccc2cc(C3=NCCCN3)ccc2c1` [compound 290], the pest or weed control at 125 ppm in assay [1] and in assay [3] was at least 75% in each case.
Take `N=C(NCCCOCc1ccc(C(=N)N)cc1)NCCCOCc1ccc(C(=N)N)cc1` [compound 175]: the pest or weed control at 125 ppm in assay [1] and in assay [2] was at least 75% throughout.
As to `N=C(N)c1ccc(OCCCCn2ccn(CCCCOc3ccc(C(=N)N)cn3)c2=NC(=O)C(F)(F)F)nc1` [compound 46, N-(1,3-bis(4-((5-carbamimidoylpyridin-2-yl)oxy)butyl)-1,3-dihydro-2H-imidazol-2-ylidene)-2,2,2-trifluoroacetamide], the pest or weed control at 125 ppm in assay [2] is at least 75%.
`N=C(NCCOCc1ccc(C(=N)N)cc1)NCCOCc1ccc(C(=N)N)cc1` [compound 226]: the pest or weed control at 125 ppm in assay [1] and in assay [2] was at least 75% in each case.
For the molecule `N=C(N)NCCCCCCCNC(=N)NCCCCCCCNC(=N)N` [compound 12, 1,3-bis(7-guanidinoheptyl)guanidine], the pest or weed control at 125 ppm in assay [1] and in assay [2] was at least 75% in each case.
As to `N=C(NCCCOc1ccc(C2=NCCN2)cc1)NCCCOc1ccc(C2=NCCN2)cc1` [compound 78], the pest or weed control at 125 ppm in assay [1] and in assay [2] was at least 75% throughout.
`CNCCNC(=N)c1ccc(OCCCn2ccn(CCCOc3ccc(C(=N)NCCNC)cc3)c2=N)cc1` [compound 97]: the pest or weed control at 125 ppm in assay [1] was at least 75%.
With `N=C(N)c1ccc(OCCCn2ccn(CCCOc3ccc(C(=N)N)cc3)c2=N)cc1` [compound 20, 4-[3-[3-[3-(4-carbamimidoylphenoxy)propyl]-2-imino-imidazol-1-yl]propoxy]benzamidine], the pest or weed control at 125 ppm in assay [2] is at least 75%.
`N=C(NCCCOc1ccc(C(=N)N)cn1)NCCCOc1ccc(C(=N)N)cn1` [compound 17, 6,6′-((((iminomethylene)bis(azanediyl))bis (propane-3,1-diyl))bis(oxy))dinicotinimidamide]: the pest or weed control at 125 ppm in assay [1] and in assay [2] was at least 75% in each case.
Consider `N=C(NCCCCCCCCNC1=NCCN1)NCCOc1ccc(C2=NCCCN2)cc1` [compound 294], for which the pest or weed control at 125 ppm in assay [1] was at least 75%.
In the case of `N=C(NCCCCCCCCNC1=NCCN1)NCCCOc1ccc(C2=NCCCN2)cc1` [compound 296], the pest or weed control at 125 ppm in assay [1] and in assay [2] was at least 75% in each case.
`N=C(N)c1ccc(COCCCn2ccn(CCCOCc3ccc(C(=N)N)cc3)c2=N)cc1` [compound 161]: the pest or weed control at 125 ppm in assay [1] and in assay [2] was at least 75% each time.
As to `N=C(N)c1ccc(OCCCn2ccn(CCCOc3ccc(C(=N)N)cc3Br)c2=N)c(Br)c1` [compound 54, 3-bromo-4-[3-[3-[3-(2-bromo-4-carbamimidoyl-phenoxy)propyl]-2-imino-imidazol-1-yl]propoxy]benzamidine], the pest or weed control at 125 ppm in assay [2] and in assay [3] was at least 75% each time.
On to `N=C(N)c1ccc(OCCCNC(=Nc2ccccc2)NCCCOc2ccc(C(=N)N)cc2)cc1` [compound 63, 4-[3-[[N-[3-(4-carbamimidoylphenoxy)propyl]-N′-phenyl-carbamimidoyl]amino]propoxy]benzamidine], for which the pest or weed control at 125 ppm in assay [1] and in assay [2] was at least 75% each time.
